# Experimental data as given in patent publication US5516790A, “Synthesis and application of alkyl-substituted dibenzofurans as antitumorigenic agents” (Texas A&M University System Technology Licensing Office, priority 1994, dated 1996).
# Like-named read-outs stand apart in the source and are kept apart here.
# Columns and labels:
# estrogen receptor (ER) = type: in vivo, female Sprague/Dawley rats
# Description: (§1) TCDD or MCDF was co-administered with a second dose of estradiol and the animals were killed 48-hours later. A second group of animals was similarly treated with corn oil, TCDD, MCDF, or TCDD plus MCDF, all administered in corn oil at 10 ml/kg and terminated 72 hours later.
# (§2) The animals were terminated by cervical dislocation. Livers were perfused with ice-cold TEDG buffer (10 mM Tris-HCl, 1.5 mM EDTA-4Na, 1 mM dithiothreitol, 10% glycerol (v/v), pH 7.4). Following perfusion in situ, livers were removed, weighed, and homogenized in ice-cold TEDG buffer. Uteri were also removed, weighed, and homogenized in ice-cold buffer. The homogenates were then centrifuged at 800×g […] for 15 minutes and the nuclear pellets were stored at -80° C. The supernatants were further centrifuged at 180,000×g for 1.5 hour. The cytosolic supernatant was also stored at -80° C. Estrogen and progesterone receptor levels were determined within 7 days.
# (§3) Estrogen and progesterone receptor levels were determined by the hydroxyapatite assay as described by Clark et al. (J. Steroid, Biochem., 16, 323-328 (1982)). […] Following the incubations, samples were counted and specific binding was calculated by subtraction of nonspecific from total binding. Assuming one steroid molecule binds to one estrogen/progesterone receptor, the number of moles of receptor can be calculated given the specific activity of the radioligand. […] Significant differences were determined by ANOVA.
# [1] = tested on: progesterone receptor (PR); type: in vivo, female Sprague/Dawley rats
# Description: as §1, §2, §3
# nuclear ER = experiment: Nuclear ER levels in MCF-7 cells; type: cell-based, human
# Description: MCF-7 cells, obtained from American Type Culture Collection (Rockville, Ma.), were maintained at 37° C. in closed Corning T-25, 75 or 150 cm^2 flasks (Corning Glassworks, Corning, N.Y.) and passaged in logarithmic growth phase.
# For the 2,3,7,8-TCDD antiestrogenicity studies, cells were treated 24 hours prior to harvesting with various concentrations of 2,3,7,8-TCDD (0.1 nM to 100 nM 2,3,7,8-TCDD). Interactive effects between 2,3,7,8-TCDD and estradiol were conducted using these same concentrations of 2,3,7,8-TCDD and 10 nM estradiol. […]
# MCF-7 cells from a single near confluent T-25 flask were incubated at 37° C. for 0.5 hours prior to harvesting with 10 nM 2,4,6,7-[^3H]-estradiol. The medium was then decanted and the cells were rinsed once with Hanks' balanced salt solution containing 1 mM EDTA. The cells were collected by centrifugation, washed gently in 2 ml of TEDG buffer and homogenized in 300 μl of TEDG buffer containing protease inhibitors [soybean trypsin inhibitor 5 mg/ml (Sigma), leupetin 1 mg/ml (Sigma), and phenylmethylsulfonyl fluoride 1 mg/ml (Sigma) by 40 strokes of a Dounce homogenizer. The homogenate was centrifuged at 800×g for 10 minutes. The crude nuclear pellet was resuspended in 300 μl of TEDGK buffer (10 mM Tris-HCl, 1.5 mM EDTA-4Na, 10 mM dithiothreitol, 10% (v/v) glycerol, 0.8 M KCl, pH 8.5 at 4° C.). The nuclear ER levels were then determined as described below.
# The nuclear extract previously obtained was incubated with 10 nM [^3 H]-estradiol plus or minus radioinert diethylstilbestrol for 1 hour at 0-4° C., with resuspension by agitation every 15 minutes. The sample was then centrifuged at 180,000×g for 30 minutes, then 200 μl of the supernatant obtained was layered onto linear 1-20% sucrose gradients prepared in TEDGMK buffer. As before, the gradients were centrifuged at 406,000×g for 2.5 hours in a vertical rotor. Following centrifugation, 30 fractions of […] were collected and the radioactivity in each sample was determined.
# [2] = tested on: MCF-7 human breast cancer cells; conditions: Biegel, 1990; cited from earlier work
structure (smiles),measurement,setting,value
"Cc1cc(Cl)cc2c1oc1cc(Cl)cc(Cl)c12 [MCDF, 6-methyl 1,3,8-trichlorodibenzofuran]",Hepatic ERc,estrogen receptor (ER); MCDF 10 μmol/kg,6.6 ± 0.5 fmol/mg protein
same,Hepatic ERn,estrogen receptor (ER); MCDF 10 μmol/kg,6.1 ± 1.0 fmol/mg protein
same,Uterine ERc,estrogen receptor (ER); MCDF 10 μmol/kg,137.7 ± 11.6 fmol/mg protein
same,Uterine ERn,estrogen receptor (ER); MCDF 10 μmol/kg,15.8 ± 1.9 fmol/mg protein
same,Hepatic ERc,estrogen receptor (ER); MCDF 50 μmol/kg,4.6 ± 0.8 fmol/mg protein
same,Hepatic ERn,estrogen receptor (ER); MCDF 50 μmol/kg,3.5 ± 0.6 fmol/mg protein
same,Uterine ERc,estrogen receptor (ER); MCDF 50 μmol/kg,110.3 ± 6.6 fmol/mg protein
same,Uterine ERn,estrogen receptor (ER); MCDF 50 μmol/kg,13.2 ± 2.1 fmol/mg protein
same,Hepatic ERc,estrogen receptor (ER); MCDF 100 μmol/kg,3.1 ± 0.3 fmol/mg protein
same,Hepatic ERn,estrogen receptor (ER); MCDF 100 μmol/kg,3.1 ± 0.7 fmol/mg protein
same,Uterine ERc,estrogen receptor (ER); MCDF 100 μmol/kg,90.2 ± 11.2 fmol/mg protein
same,Uterine ERn,estrogen receptor (ER); MCDF 100 μmol/kg,11.5 ± 1.0 fmol/mg protein
same,constitutive uterine hepatic estrogen receptors,estrogen receptor (ER); MCDF 50 and 100 μmol/kg,dose dependent decrease
same,Hepatic ERc,"estrogen receptor (ER); Table 11, cotreatment with E-2",8.1 ± 1.2 fmol/mg protein
same,Hepatic ERn,"estrogen receptor (ER); Table 11, cotreatment with E-2",3.6 ± 0.9 fmol/mg protein
same,Uterine ERc,"estrogen receptor (ER); Table 11, cotreatment with E-2",93.5 ± 4.0 fmol/mg protein
same,Uterine ERn,"estrogen receptor (ER); Table 11, cotreatment with E-2",18.5 ± 1.2 fmol/mg protein
same,Hepatic ERc,"estrogen receptor (ER); rat, in vivo",3.7 ± 1.1
same,Hepatic ERn,"estrogen receptor (ER); rat, in vivo",3.1 ± 0.2
same,Uterine ERc,"estrogen receptor (ER); rat, in vivo",67.8 ± 2.5
same,Uterine ERn,"estrogen receptor (ER); rat, in vivo",13.0 ± 1.1
same,"uterine and hepatic estrogen receptors and progesterone receptor levels, of corresponding levels with 17β-estradiol alone (1st of four values)","estrogen receptor (ER); rat, in vivo",43%
same,"uterine and hepatic estrogen receptors and progesterone receptor levels, of corresponding levels with 17β-estradiol alone (2nd of four values)","estrogen receptor (ER); rat, in vivo",59%
same,Hepatic PRc,[1]; MCDF 10 μmol/kg,74.3 ± 8.1 fmol/mg protein
same,Hepatic PRn,[1]; MCDF 10 μmol/kg,8.9 ± 1.5 fmol/mg protein
same,Uterine PRc,[1]; MCDF 10 μmol/kg,980 ± 34.6 fmol/mg protein
same,Uterine PRn,[1]; MCDF 10 μmol/kg,390 ± 31.6 fmol/mg protein
same,Hepatic PRc,[1]; MCDF 50 μmol/kg,66.0 ± 7.1 fmol/mg protein
same,Hepatic PRn,[1]; MCDF 50 μmol/kg,7.6 ± 1.0 fmol/mg protein
same,Uterine PRc,[1]; MCDF 50 μmol/kg,886 ± 20.1 fmol/mg protein
same,Uterine PRn,[1]; MCDF 50 μmol/kg,290 ± 30.2 fmol/mg protein
same,Hepatic PRc,[1]; MCDF 100 μmol/kg,40.2 ± 3.2 fmol/mg protein
same,Hepatic PRn,[1]; MCDF 100 μmol/kg,6.8 ± 1.0 fmol/mg protein
same,Uterine PRc,[1]; MCDF 100 μmol/kg,811 ± 26.4 fmol/mg protein
same,Uterine PRn,[1]; MCDF 100 μmol/kg,240 ± 26.1 fmol/mg protein
same,constitutive uterine hepatic progesterone receptor levels,[1]; MCDF 50 and 100 μmol/kg,dose dependent decrease
same,Hepatic PRc,"[1]; Table 11, cotreatment with E-2",108.9 ± 11.1 fmol/mg protein
same,Hepatic PRn,"[1]; Table 11, cotreatment with E-2",6.4 ± 1.0 fmol/mg protein
same,Uterine PRc,"[1]; Table 11, cotreatment with E-2",941.2 ± 45.1 fmol/mg protein
same,Uterine PRn,"[1]; Table 11, cotreatment with E-2",602 ± 11.4 fmol/mg protein
same,Hepatic PRc,"[1]; rat, in vivo",60.6 ± 8.4 fmol/mg protein
same,Hepatic PRn,"[1]; rat, in vivo",5.1 ± 1.0 fmol/mg protein
same,Uterine PRc,"[1]; rat, in vivo",805.3 ± 29.0 fmol/mg protein
same,Uterine PRn,"[1]; rat, in vivo",205 ± 10.6 fmol/mg protein
same,"uterine and hepatic estrogen receptors and progesterone receptor levels, of corresponding levels with 17β-estradiol alone (3rd of four values)","[1]; rat, in vivo",36%
same,"uterine and hepatic estrogen receptors and progesterone receptor levels, of corresponding levels with 17β-estradiol alone (4th of four values)","[1]; rat, in vivo",75%
same,ERn,"nuclear ER; 2,3,7,8-TCDD (10 nM) + MCDF (15 μM)",147.5(9.6) fmol/mg protein
same,ERn,"nuclear ER; 2,3,7,8-TCDD (10 nM) + MCDF (50 μM)",136.0(14.7) fmol/mg protein
same,ERn,"nuclear ER; 2,3,7,8-TCDD (10 nM) + MCDF (75 μM)",133.1(10.4) fmol/mg protein
same,ERn,"nuclear ER; 2,3,7,8-TCDD (10 nM) + MCDF (100 μM)",123.1(7.1) fmol/mg protein
same,ERn,"nuclear ER; 2,3,7,8-TCDD (10 nM) + MCDF (150 μM)",129.3(2.9) fmol/mg protein
same,ERn,"nuclear ER; 2,3,7,8-TCDD (25 nM) + MCDF (15 μM)",146.9(9.6) fmol/mg protein
same,ERn,"nuclear ER; 2,3,7,8-TCDD (25 nM) + MCDF (50 μM)",85.5(16.5) fmol/mg protein
same,ERn,"nuclear ER; 2,3,7,8-TCDD (25 nM) + MCDF (75 μM)",91.3(9.7) fmol/mg protein
same,ERn,"nuclear ER; 2,3,7,8-TCDD (25 nM) + MCDF (100 μM)",100.5 (10.4) fmol/mg protein
same,ERn,"nuclear ER; 2,3,7,8-TCDD (25 nM) + MCDF (150 μM)",108.1(18.1) fmol/mg protein
same,ERn levels in MCF-7 cells,nuclear ER; MCDF,significantly decreased
same,ERn,nuclear ER; MCDF alone (15 μM),207.5 (6.6) fmol/mg protein
same,ERn,nuclear ER; MCDF alone (50 μM),171.6 (13.7) fmol/mg protein
same,ERn,nuclear ER; MCDF alone (100 μM),135.8 (4.5) fmol/mg protein
same,ERn,nuclear ER; MCDF alone (150 μM),114.2 (7.9) fmol/mg protein
same,"ERn levels, combined treatment vs either 2,3,7,8-TCDD or MCDF","nuclear ER; MCDF plus 2,3,7,8-TCDD",not significantly different
same,combined effects on ERn levels in MCF-7 cells,"nuclear ER; MCDF plus 2,3,7,8-TCDD",clearly not additive
same,nuclear ER levels,"nuclear ER; TCDD (10 nM), MCDF (100 nM)",decrease in nuclear ER levels
same,ERn,nuclear ER; alone (75 μM),141.8 (13.6) fmol/mg protein
same,ERn,"nuclear ER; estradiol (10 nM) + 2,3,7,8-TCDD (10 nM) plus MCDF (15 nM)",133.1 (14.3) fmol/mg protein
same,ERn,"nuclear ER; estradiol (10 nM) + 2,3,7,8-TCDD (10 nM) plus MCDF (50 μM)",122.3 (5.5) fmol/mg protein
same,ERn,"nuclear ER; estradiol (10 nM) + 2,3,7,8-TCDD (10 nM) plus MCDF (100 μM)",125.5 (9.7) fmol/mg protein
same,ERn,"nuclear ER; estradiol (10 nM) + 2,3,7,8-TCDD (25 nM) plus MCDF (15 μM)",132.6 (2.1) fmol/mg protein
same,ERn,"nuclear ER; estradiol (10 nM) + 2,3,7,8-TCDD (25 nM) plus MCDF (50 μM)",130.5 (5.3) fmol/mg protein
same,ERn,"nuclear ER; estradiol (10 nM) + 2,3,7,8-TCDD (25 μM) plus MCDF (100 μM)",123.8 (8.3) fmol/mg protein
same,ERn,nuclear ER; estradiol (10 nM) + MCDF (15 μM),113.4 (3.9) fmol/mg protein
same,ERn,nuclear ER; estradiol (10 nM) + MCDF (50 μM),103.4 (17.6) fmol/mg protein
same,ERn,nuclear ER; estradiol (10 nM) + MCDF (100 μM),106.4 (7.9) fmol/mg protein
same,17β-estradiol-induced growth of MCF-7 cells,[2],inhibits
